“And” between values parts separate entries of the source, which are not always exact repeats. Equal values may be shown once. Read-outs that look alike come from different tables or passages of the source. Where no end group is shown, it is not given here.
Columns and labels:
[1] = tested on: cerebral cortical precursors of E15.5 rat embryos; assay: [3H]thymidine incorporation (DNA synthesis) in cerebral hemispheres after transuterine intracerebroventricular injection; format: in vivo; details: vs vehicle
Protocol: Transuterine intracerebroventricular injection. Intraventricular injection was done as described. […] Dye enhancement of the ventricles indicated successful injections.
Quantification. Newly synthesized DNA was measured after TCA precipitation. Tissues were homogenized in 10 volumes of distilled water. After reserving aliquots to assess total tissue [^3H]dT uptake, DNA was precipitated with 10% TCA, centrifuged, and washed twice in 10% TCA. Pellets were dissolved and counted along with aliquots by scintillation spectrometry.

[2] = tested on: BrdU-labeled precursors in the CP
Description: (§1) For BrdU immunohistochemistry, E15.5 and E18.5 tissues were fixed in 4% PFA, paraffin-embedded, and sectioned (4 μm) coronally. E20.5 tissues were perfusion-fixed in 2% PFA, cryoprotected, and sectioned at 15 μm. The tissues were immunostained. Then, the tissues were double-labeled with antibodies to neuron specific markers TuJ1 (1:200, Biogenesis, Poole, United Kingdom), tau (1:200, I. Fischer, Med. Coll. Penn.) and MAP2c (1:2000, I. Fischer) or glial markers, vimentin (1:4, Roche) and GFAP (1:1000, Sigma), visualizing with Texas Red for BrdU and FITC for phenotypic markers. TUNEL assay was done according to the manufacturer (Oncor, Gaithersburg, Md.) on sections adjacent to those used for BrdU.
(§2) Transuterine intracerebroventricular injection. Intraventricular injection was done as described. Following anesthesia (ketamine 30 mg per kg/xylazine 3 mg per kg) and laparotomy of E15.5 pregnant dams, 1 μl of vehicle or factors and 0.05% fast green was delivered into the embryonic lateral ventricle through the uterine wall, using drawn capillary pipettes. Dye enhancement of the ventricles indicated successful injections. After closure, dams were injected subcutaneously with markers of DNA synthesis, [^3H]dT (4 μCi/g, NEN) and BrdU (100 μg/g) at 3 h and sacrificed at 4 h. One embryonic hemisphere was assayed for [^3H]dT incorporation and the other for immunohistochemistry.
(§3) For labeling index, the analysis was done in the dorsolateral sector of 3 non-adjacent coronal cortex sections per brain, using a camera lucida (Zeiss, Thornwood, N.Y.) under 400× magnification. For E15.5 sections, BrdU(+) nuclei and total nuclei were scored within a 100 μm×100, μm sector based on the ventricular surface extending to the pial surface. BrdU(+) cells in the CP were counted in centrally located sectors extending 100 μm (E18.5 sections) or 200 μm (E20.5 sections) in the mediolateral dimension.

[3] = tested on: VZ precursors of E15.5 rat cortex
Description: as §1, §2, §3

[4] = tested on: cortical precursors in culture; details: cited from earlier work
PAC1 = target: T1, PAC1 (Homo sapiens, UniProt P41586); details: higher affinity than PACAP6-38; cited from earlier work
T1 sequence (P41586 21-468): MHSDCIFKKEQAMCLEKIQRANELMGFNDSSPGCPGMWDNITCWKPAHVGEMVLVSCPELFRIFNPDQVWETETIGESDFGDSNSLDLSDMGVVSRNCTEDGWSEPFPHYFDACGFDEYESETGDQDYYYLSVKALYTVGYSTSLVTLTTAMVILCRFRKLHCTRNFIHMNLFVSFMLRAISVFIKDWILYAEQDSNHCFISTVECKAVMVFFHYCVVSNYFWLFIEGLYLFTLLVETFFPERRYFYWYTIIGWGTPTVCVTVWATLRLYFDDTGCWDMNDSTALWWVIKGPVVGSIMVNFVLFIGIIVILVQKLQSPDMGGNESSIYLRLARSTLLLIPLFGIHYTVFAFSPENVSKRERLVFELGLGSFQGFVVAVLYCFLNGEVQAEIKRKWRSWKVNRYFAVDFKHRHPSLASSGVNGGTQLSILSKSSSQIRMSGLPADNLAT

[5] = injectant volume 1 μl ICV at E15.5, 4 h

In the case of “Pituitary Adenylate Cyclase-Activating Polypeptide [PACAP]”, the “decrease of DNA synthesis, [3H]dT incorporation into cerebral hemispheres” value ([1]; PACAP 10^-5 M, ICV into E15.5 rat lateral ventricle, four hours later) is reported as 24%, the “less mitotically labeled (BrdU+) cells in the CP” value ([2]; 3 days (E18.5) after PACAP administration at E15.5) is reported as 38% and the “less mitotically labeled (BrdU+) cells in the CP” value ([2]; 5 days (E20.5) after PACAP administration at E15.5) is reported as 33%. The “Labeling Index (LI), BrdU(+) nuclei in VZ” value ([3]; 4 hours after ICV injection at E15.5, n=6/group) was 26±1.3%, the “decrease of Labeling Index / mitotic labeling” value ([3]; 4 hours after ICV injection at E15.5, vs vehicle) was 25% and 26% and the “effect on proliferative effects of mitogenic IGF-I, bFGF and EGF” value [4] was “inhibited proliferative effects”.

For Nc1ncnc2c1ncn2[C@@H]1O[C@@H]2CO[P@@](O)(=S)O[C@H]2[C@H]1O [Rp-cAMPS], the “% Stimulation of DNA synthesis ([3H]dT incorporation)” value (shortened to “% Stimulation of DNA synthesis”) [1, 5] was 28.3 ± 3.1 %.

In the case of “PACAP6-38: specific PAC1 antagonist (FTDSYSRYRKQMAVKKYLAAVLGKRYKQRVKNK; ends and bridges not checked)”, the “% Stimulation of DNA synthesis” value [1, 5] is reported as 10±2.2%.

For “M65: newly defined PAC1 antagonist derived from sand fly peptide maxadilan”, the “% Stimulation of DNA synthesis” value [1, 5] is given as 14% and 13.4 ± 4.6 %, the “% Stimulation of DNA synthesis” value ([1]; injectant volume 2 μl (twice the dose) ICV at E15.5, 4 h) is given as 20% and 20.1 ± 7.0 % and the “affinity for PAC1 relative to PACAP6-38” value (PAC1) is given as 6 fold.

Source: patent US20070149439A1 (priority 2001, published 2007)
